Test results from ChEMBL document CHEMBL3045161, “Evaluation of fungicides and biocontrol agents against grey blight disease of tea in the field” (2008).
Calls of active or inactive are those of the source. The rule behind the calls is not given here.

Key:
[1] = system: Pseudopestalotiopsis theae; test: Fungicidal activity against grey blight disease-causing Pestalotiopsis theae infested tea plantation assessed as green leaf yield which made tea compound applied on shears during hravesting (reference value: 3044 kg/ha); format: functional
[2] = system: Pseudopestalotiopsis theae; test: Fungicidal activity against grey blight disease-causing Pestalotiopsis theae infested tea plantation assessed as disease incidence compound applied on shears during hravesting (reference value: 47 %); format: functional
[3] = system: Pseudopestalotiopsis theae; test: Fungicidal activity against Pestalotiopsis theae infested tea plant in nursery assessed as reduction in plant casuality at 3 % sprayed on topsoil measured after 90 days; format: functional, organism-based
[4] = system: Pseudopestalotiopsis theae; test: Fungicidal activity against Pestalotiopsis theae infested tea plant in nursery assessed as reduction in plant casuality at 0.05 % sprayed on topsoil measured after 90 days (reference value: 58 %); format: functional; parameters: scale not given: the % may be the effect or the level left
[5] = system: Pseudopestalotiopsis theae; test: Fungicidal activity against grey blight disease-causing Pestalotiopsis theae infested tea plantation assessed as green leaf yield which made tea at 0.05 % applied as foliar spray (reference value: 2884 kg/ha ); format: functional
[6] = system: Pseudopestalotiopsis theae; test: Fungicidal activity against grey blight disease-causing Pestalotiopsis theae infested tea plantation assessed as disease incidence at 0.05 % applied as foliar spray (reference value: 39.2 %); format: functional
[7] = system: Pseudopestalotiopsis theae; test: Fungicidal activity against Pestalotiopsis theae infested tea plant in nursery assessed as reduction in plant casuality at 5 % sprayed on topsoil measured after 90 days; format: functional, organism-based

In the case of `COC(=O)NC(=S)Nc1ccccc1NC(=S)NC(=O)OC` [THIOPHANATE METHYL], the Crop_yield [1] is reported as 3457 kg/ha, the Activity [2] is reported as 17.5% and the Activity [3] is reported as “Active”. The Activity [4] was 3%, the Crop_yield [5] was 3886 kg/ha and the Activity [6] was 5.6%.

`COC(=O)Nc1nc2ccccc2[nH]1` [CARBENDAZIM] was tested, and the Activity [7] was “Active”, the Activity [4] was 5% and the Crop_yield [5] was 3845 kg/ha. It also gave an Activity [6] of 6.6%.
